In BindingDB's records for doi:10.7270/Q2DZ06QW (Columbia University Molecular Screening Center, 2008) one finds IC50 data, which are given here for 18 compounds.

In this test the target is T1, Bifunctional epoxide hydrolase 2 (Homo sapiens, UniProt P34913).
T1 sequence (P34913 whole entry): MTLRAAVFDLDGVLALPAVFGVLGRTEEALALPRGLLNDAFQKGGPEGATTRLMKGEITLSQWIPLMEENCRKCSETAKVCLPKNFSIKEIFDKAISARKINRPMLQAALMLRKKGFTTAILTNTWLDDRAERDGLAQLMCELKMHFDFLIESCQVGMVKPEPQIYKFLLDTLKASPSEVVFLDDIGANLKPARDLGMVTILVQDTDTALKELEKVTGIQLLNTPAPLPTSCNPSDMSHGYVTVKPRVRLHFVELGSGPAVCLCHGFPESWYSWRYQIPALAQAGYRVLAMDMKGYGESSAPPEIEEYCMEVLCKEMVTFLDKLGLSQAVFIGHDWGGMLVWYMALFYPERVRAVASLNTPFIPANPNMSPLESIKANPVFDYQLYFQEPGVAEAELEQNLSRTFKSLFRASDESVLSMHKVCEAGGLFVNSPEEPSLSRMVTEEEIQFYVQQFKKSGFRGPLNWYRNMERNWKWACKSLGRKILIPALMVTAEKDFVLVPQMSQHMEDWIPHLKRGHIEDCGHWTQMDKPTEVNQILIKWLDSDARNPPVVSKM
Description: sEH inhibitor concentration-response potency, dose response, biochemical, human sEH, fluorescence, Infinite200 (AID 1026).

Molecules are shown by their SMILES. pIC50: −log10 of the molar value.

Consider `O=C(CCCOc1ccc(Cl)cc1Cl)NN=CC1CCCCC1`, for which the pIC50 is 7.61.

`Cc1ccccc1NC(=S)NCCC(c1ccccc1)c1ccccc1` [1-(3,3-diphenylpropyl)-3-(2-methylphenyl)thiourea] had a pIC50 of under 5.00.

Compound `Cc1ccc(NC(=O)NC2CCCCC2)cc1Cl` [1-(3-chloranyl-4-methyl-phenyl)-3-cyclohexyl-urea] showed a pIC50 of 7.15.

Turning to `COc1ccc(S(=O)(=O)N2C3CCC2CC(NC(=O)NC2CCCCC2)C3)cc1` (stereo not drawn) [1-Cyclohexyl-3-[8-(4-methoxy-benzenesulfonyl)-8-aza-bicyclo[3.2.1]oct-3-yl]-urea], the pIC50 is 7.40.

`CC(C)(C)c1ccc(S(=O)(=O)N2CCC(c3nc4cc(Cl)ccc4[nH]3)CC2)cc1` [2-[1-(4-tert-butylphenyl)sulfonylpiperidin-4-yl]-6-chloranyl-1H-benzimidazole] gave a pIC50 of under 5.00.

With `CCOC(=O)C(O)(c1ccc(NC(=O)NC2CCCCC2)cc1)C(F)(F)F` (stereo not drawn) [2-[4-(cyclohexylcarbamoylamino)phenyl]-3,3,3-trifluoro-2-hydroxy-propionic acid ethyl ester], the pIC50 was 6.92.

The compound `COc1ccc(Cn2ccc(=O)c(Cc3c(Cl)cccc3Cl)c2C)cc1` [3-(2,6-dichlorobenzyl)-1-(4-methoxybenzyl)-2-methyl-4(1H)-pyridinone] gave a pIC50 of under 5.00.

On to `Cc1cc(Cl)c(OCCCNCc2ccccc2)c(Br)c1` [3-(2-bromanyl-6-chloranyl-4-methyl-phenoxy)-N-(phenylmethyl)propan-1-amine;ethanedioic acid], for which the pIC50 was under 5.00.

Turning to `CCN(CC)S(=O)(=O)c1ccc(N=C2NS(=O)(=O)c3ccccc32)cc1` [4-(1,1-Dioxo-1H-1lambda*6*-benzo[d]isothiazol-3-ylamino)-N,N-diethyl-benzenesulfonamide], the negative logarithm of the IC50 (pIC50) is under 5.00.

Compound `COC(=O)c1ccc(S(=O)(=O)N2C3CCC2CC(NC(=O)NC2CCCCC2)C3)cc1` (stereo not drawn) [4-[3-(3-Cyclohexyl-ureido)-8-aza-bicyclo[3.2.1]octane-8-sulfonyl]-benzoic acid methyl ester] had a pIC50 of 8.05.

`c1ccc(CCN=C2NCCCS2)cc1` [5,6-dihydro-4H-1,3-thiazin-2-yl(phenethyl)amine] showed a pIC50 of under 5.00.

As to `CCOC(=O)c1sc(NC(=O)Nc2ccc(Cl)cc2)cc1C` [5-[(4-chlorophenyl)carbamoylamino]-3-methyl-thiophene-2-carboxylic acid ethyl ester], the pIC50 was 7.20.

`CCOC(=O)c1sc(NC(=O)c2ccc(Cl)s2)cc1C` [5-[(5-chlorothiophene-2-carbonyl)amino]-3-methyl-thiophene-2-carboxylic acid ethyl ester]: the pIC50 was 7.08.

In turn, `O=C1Nc2ccc(S(=O)(=O)N3CCOCC3)c3cccc1c23` [6-(4-morpholinylsulfonyl)-1H-benzo[cd]indol-2-one] gave a pIC50 of under 5.00.

With `CC(C)CN(C#N)c1nc(N2CCOCC2)nc(N2CCOCC2)n1` [(4,6-dimorpholin-4-yl-1,3,5-triazin-2-yl)-(2-methylpropyl)cyanamide], the pIC50 is under 5.00.

The compound `Cc1cc(NS(=O)(=O)c2ccc(Nc3nc(-c4sc(NC(=O)c5ccccc5)nc4C)cs3)cc2)no1` [MLS000523248] showed a pIC50 of 7.70.

For `Clc1ccc(CON=CNc2ncnc3sccc23)cc1` [N-[(4-chlorophenyl)methoxy]-N'-thieno[2,3-d]pyrimidin-4-yl-methanimidamide], the pIC50 is under 5.00.

Turning to `CCOC(=O)CSc1ccc(-c2nc3cc(C)c(C)cc3[nH]2)cn1` [SMR000122535], the pIC50 is under 5.00.
